{
  "source": "patent US10228365B2",
  "about": "“Method for measuring carbohydrate metabolism ability, and composition for use in said method” (priority 2012, dated 2019)",
  "key": {"[1]": {"system": "glucose metabolism ability", "details": "rat, in vivo, iv", "experimental": "Fasted rats (male, SD rats) as experimental animals were divided into four groups (n=4 per group). The above-prepared ^13C-glucose solutions were individually intravenously administered to the rats in each group (1-^13-Glc-administration group, 2-^13C-Glc-administration group, 3-^13C-Glc-administration group, and U-^13-Glc-adrainistration group) in an amount of 1 mL/kg. Expired air was collected before the administration of each ^13C-glucose solution (0 minutes) and at each point in time (10, 20, 30, 40, 50, 60, 80, 100, and 120 minutes) after the administration of each ^13C-glucose solution, Δ^13C(‰) was determined with a mass spectrometer for expired air analysis (ABCA: produced by Sercon) from the concentration of ^13CO2 excreted in the expired air.\nThe Δ^13C(‰) was determined by measuring the ^13CO2/^12CO2 concentration ratio (δ^13C value) in the expired air before the administration of each ^13C-glucose solution (0 minutes) and in the expired air at each point in time for collecting the expired air (t minutes) after the administration of each ^13C-glucose solution, and calculating Δ^13C(‰) from the difference between the δ^13C value (δ^13Ct) at each collection point in time (t) and the δ^13C value (δ^13C0) before the administration (δ^13Ct−δ^13C0) (the same applies to the below-described Experimental Examples)."}, "[2]": {"system": "glucose metabolism ability", "assay": "Breath test under fasting and glucose-loaded conditions", "type": "in vivo, rats (OLETF, LETO)", "description": "OLETF rats, which are diabetic animal models, were used as experimental animals, and LETO rats were used as a control. More specifically, after being fasted for 20 hours, Group 1 (control group: […], male, n=5) and Group 2 (diabetes group; OLETF rats, male, n=6) were subjected to the following test.\nAn aqueous U-^13C-glucose solution (50 μmol/4 mL/kg) was orally administered to Group 1 (control group) and Group 2 (diabetes group) under fasting conditions. In each group, expired air was collected before the U-^13C-glucose administration (0 minutes) and at each point in time (10, 20, 30, 40, 50, 60, 80, 100, and 120 minutes) after the U-^13C-glucose administration. Δ^13C(‰) was determined with a mass spectrometer for expired air analysis (ABCA: produced by Sercon) from the concentration of ^13CO2 excreted in the expired air.\n• (2-2-1) An aqueous glucose solution (450 mg/4 mL/kg) and an aqueous U-^13C-glucose solution (50 μmol/4 mL/kg) were orally administered simultaneously to the experimental animals of (1), i.e., Group 1 (control group) and Group 2 (diabetes group). As in (2-1), expired air was collected in each group before the U-^13C-glucose administration (0 minutes) and at each, point in time (10, 20, 30, 40, 50, 60, 80, 100, and 120 minutes) after the U-^13C-glucose administration. Δ^13C(‰) was determined from the concentration of ^13CO2 excreted in the expired air. […]"}, "[3]": {"system": "glucose metabolism ability", "assay": "Evaluation of treatment effect of a therapeutic agent for diabetes with U-13C-glucose breath test", "type": "in vivo, ZDF rats", "details": "300 mg/kg oral for three days; for expired air pattern (changes in the Δ13C(‰)) after vs before administration: non-fasting, FIG. 12", "description": "Three groups of ZDF rats (Group A: healthy group (n=4), Group B: diabetes severe onset group (n=6), and Group C: diabetes moderate onset group (n=6)) were used as experimental animals. In the experiment, these ZDF rats were allowed free access to water and feed (containing saccharide, fat, and protein) (MF: Oriental Yeast Co., Ltd.). More specifically, the following experiment was performed under non-fasting conditions.\nMetformin (Wako Pure Chemical Industries, Ltd., which is an active ingredient of biguanide therapeutic agents for diabetes (generic name: Melbin), was orally administered to the rats of these groups in an amount of 300 mg/kg every morning for three days. A U-^13C-glucose solution prepared by the method described in (1) of Experimental Example 1 was intravenously administered 3 hours after the administration of metformin on day 3.\nExpired air was collected in the rats of each group before the U-^13-glucose administration (0 minutes) and at each point in time (10, 20, 30, 40, 50, 60, 80, 100, and 120 minutes) after the U-^13C-glucose administration. Δ^13(‰) was determined with a mass spectrometer for expired air analysis (ABCA: produced by Sercon) from the concentration of ^13CO2 excreted in the expired air."}, "[4]": {"system": "glucose metabolism ability", "assay": "Evaluation of treatment effect after administration of insulin with 1-13C-glucose breath test", "type": "in vivo, rats (Wistar", "details": "STZ rats, FIG. 13", "description": "A control group (Wistar rats, male, n=3) and a type 1 diabetes group (STZ rats, male, n=3) were used as experimental animals. In the experiment, these rats were allowed free access to water and feed (containing saccharide, fat, and protein) (MF: Oriental Yeast Co., Ltd.). More specifically, the following experiment was performed under non-fasting conditions.\nRats one week after STZ (streptosocin: SIGMA) were intravenously administered in an amount of 65 mg/mL/kg was used as the type 1 diabetes group (STZ rats).\nInsulin (SIGMA) was subcutaneously administered to the type 1 diabetes group in an amount of 30 U/body. […] Expired air was collected in the rats of the groups (control group, type 1 diabetes group, insulin-administered 4 h-diabetes group, and insulin-administered 24 h-diabetes group) before the 1-^13C-glucose administration (0 minutes) and at each point in time (10, 20, 30, 40, 50, 60, 80, 100, and 120 minutes) after the 1-^13C-glucose administration. Δ^13C(‰) was determined with a mass spectrometer for expired air analysis (ABCA: produced by Sercon) from the concentration of ^13CO2 excreted in the expired air."}},
  "data": [
    {"compound": "OC[C@H]1OC(O)[C@H](O)[13C@@H](O)[C@@H]1O", "note": "(stereo partly drawn) [3-^13C-glucose]", "values": [
      {"measurement": "Δ13C(‰) in the expired air up to 30 minutes after the glucose solution administration (rank among 13C-glucoses)", "setting": "[1]", "value": "highest"}
    ]},
    {"compound": "OC[C@H]1OC(O)[C@H](O)[C@@H](O)[C@@H]1O", "note": "(stereo partly drawn) [U-^13C-glucose]", "values": [
      {"measurement": "difference between the Δ13C(‰) value of Group 1 (control group) and Group 2 (diabetes group)", "setting": "[2]; fasting conditions, oral 50 μmol/4 mL/kg, FIG. 6", "value": "small"},
      {"measurement": "difference in the expired air response between Group 1 (control group) and Group 2 (diabetes group)", "setting": "[2]; rat, in vivo", "value": "further widened"},
      {"measurement": "expired air pattern of Group 1 (control group) compared with Group 2 (diabetes group)", "setting": "[2]; rat, in vivo", "value": "significantly high"}
    ]},
    {"compound": "CN(C)C(=N)N=C(N)N", "note": "[therapeutic agent for diabetes, Metformin]", "values": [
      {"measurement": "expired air pattern (changes in the Δ13C(‰)) after vs before administration", "setting": "[3]; Group B diabetes severe onset", "value": "higher values"},
      {"measurement": "expired air pattern (changes in the Δ13C(‰)) after vs before administration", "setting": "[3]; Group C diabetes moderate onset", "value": "higher values"},
      {"measurement": "glucose metabolism ability", "setting": "[3]; diabetes onset groups B and C", "value": "enhanced"}
    ]},
    {"compound": "insulin: Insulin (SIGMA), subcutaneously administered", "values": [
      {"measurement": "Δ13C(‰) compared with control group", "setting": "[4]; 4 hours after 30 U/body subcutaneous", "value": "almost the same as that of the control group"},
      {"measurement": "expired air pattern (change in the Δ13C(‰))", "setting": "[4]; 24 hours after 30 U/body subcutaneous", "value": "low value"}
    ]}
  ]
}
